Broadly, the inhibition is the share of the control response that was lost under treatment. Usually LD50 stands for the dose at which mortality reaches 50%. Low values mean greater toxicity, high ones lower toxicity. For orientation: solubility means the concentration that dissolves in the medium under given conditions.

Results on ten molecules are retold here after patent US20210353579A1, “HIGH PENETRATION COMPOSITIONS AND USES THEREOF” (Techfields Pharma Co., Ltd., priority 2006, published 2021).

Structures are written as SMILES. ≈ marks a conversion by molar mass, not a printed value.
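Wherever LD50 is given: acute toxicity in rats expressed as LD50, determined for both prodrugs and their parent compounds.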

Test system in one data set: not listed separately
In words: Plasma levels after transdermal administration to hairless mice. To be noted: parent compound administered (time when taken orally). The format is in vivo. The procedure: Tested compounds (20% solution or suspension in 1 mL isopropanol) are administered transdermally to the skin of intact hairless mice. The plasma levels of the parent compounds are determined by HPLC.
With `O=C(O)Cc1ccccc1Oc1ccc(Cl)cc1Cl` [Fenclofenac, fenclofenac], the “t, time to peak plasma level after parent compound” value (from here on “t, time to peak plasma level”) lay within 1 to 2 h.

For `Cc1cc(CC(=O)O)n(C)c1C(=O)c1ccc(Cl)cc1` [Zomepirac, zomepirac], the “t, time to peak plasma level” value lay in the range of 1 to 2 h.

Consider `O=C(O)Cc1cn(-c2ccccc2)nc1-c1ccc(Cl)cc1` [Lonazolac, lonazolac, reference compound], for which the “t, time to peak plasma level” value fell in the range of 1 to 2 h.

As to `C=C(C)CNc1ccc(C(C)C(=O)O)cc1` (stereo not shown) [Alminoprofen, alminoprofen], the “t, time to peak plasma level” value was 2 to 4 h.

For `COc1ccc2c(c1)c(CC(=O)OCC(=O)O)c(C)n2C(=O)c1ccc(Cl)cc1` [Acemetacin, acemetacin], the “t, time to peak plasma level” value was in the range of 1 to 2 h.

As for `CCc1cccc2c3c([nH]c12)C(CC)(CC(=O)O)OCC3` (stereo not shown) [Etodolac, etodolac], the “t, time to peak plasma level” value is 1 to 2 h.

Regarding `O=C(O)c1cc(-c2ccc(F)cc2F)ccc1O` [Diflunisal, 5-(2,4-difluorophenyl) salicylic acid, reference compound], the “t, time to peak plasma level” value fell in the range of 1 to 2 h.

Take `Nc1c(CC(=O)O)cccc1C(=O)c1ccccc1` [Amfenac, amfenac]: the “t, time to peak plasma level” value was 1 to 2 h.

For `O=C(O)c1ccccc1Nc1cccc(C(F)(F)F)c1` [Flufenamic acid, flufenamic acid], the “t, time to peak plasma level” value lay in the range of 2 to 4 h.

For `O=C(O)C(Cl)c1ccc(C2CCCCC2)c(Cl)c1` (stereo not shown) [Fenclorac, fenclorac], the “t, time to peak plasma level” value lay within 2 to 4 h.

The data set is the same for the next values; noted with them: parent compound administered, hairless mice.
On to `O=C(O)Cc1ccccc1Oc1ccc(Cl)cc1Cl` [Fenclofenac, fenclofenac], for which the “Peak plasma concentration after parent compound” value (“Peak plasma concentration” below) is recorded as 0.1 mg/L.

Turning to `Cc1cc(CC(=O)O)n(C)c1C(=O)c1ccc(Cl)cc1` [Zomepirac, zomepirac], the “Peak plasma concentration” value was found to be 0.1 mg/L.

Consider `O=C(O)Cc1cn(-c2ccccc2)nc1-c1ccc(Cl)cc1` [Lonazolac, lonazolac, reference compound], for which the “Peak plasma concentration” value came to 0.1 mg/L.

`C=C(C)CNc1ccc(C(C)C(=O)O)cc1` (stereo not shown) [Alminoprofen, alminoprofen]: the “Peak plasma concentration” value is reported as 10 mg/L.

Take `COc1ccc2c(c1)c(CC(=O)OCC(=O)O)c(C)n2C(=O)c1ccc(Cl)cc1` [Acemetacin, acemetacin]: the “Peak plasma concentration” value was 0.1 mg/L.

With `CCc1cccc2c3c([nH]c12)C(CC)(CC(=O)O)OCC3` (stereo not shown) [Etodolac, etodolac], the “Peak plasma concentration” value was 0.1 mg/L.

For `O=C(O)c1cc(-c2ccc(F)cc2F)ccc1O` [Diflunisal, 5-(2,4-difluorophenyl) salicylic acid, reference compound], the “Peak plasma concentration” value is on record as 0.2 mg/L.

Turning to `Nc1c(CC(=O)O)cccc1C(=O)c1ccccc1` [Amfenac, amfenac], the “Peak plasma concentration” value was 0.1 mg/L.

On to `O=C(O)c1ccccc1Nc1cccc(C(F)(F)F)c1` [Flufenamic acid, flufenamic acid], for which the “Peak plasma concentration” value amounted to 0.1 mg/L.

Regarding `O=C(O)C(Cl)c1ccc(C2CCCCC2)c(Cl)c1` (stereo not shown) [Fenclorac, fenclorac], the “Peak plasma concentration” value stood at 10 mg/L.

Another data set has as its system mice. Briefly: Analgesic activity, acetic acid writhing. The format is in vivo. The settings on record: 50 mg/kg orally, 30 min before acetic acid. The procedure:
The prodrug compounds are administered either transdermally or orally. The parent compounds are administered orally. The number of writhing that occurred when mice are administered the acetic acid solution are counted, and the rate of inhibition based on the control group which was not pretreated with any test compounds is calculated. […] The A group is the control group.
(An intraperitoneal irritant provokes the stretching counted in writhing tests.)
With `O=C(O)c1cc(-c2ccc(F)cc2F)ccc1O` [Diflunisal, 5-(2,4-difluorophenyl) salicylic acid, reference compound], the “No. of Writhing” value amounted to 18.1.

Staying with this data set, now noted: 100 mg/kg orally, 30 min before acetic acid.
For the molecule `O=C(O)c1cc(-c2ccc(F)cc2F)ccc1O` [Diflunisal, 5-(2,4-difluorophenyl) salicylic acid, reference compound], the “No. of Writhing” value is on record as 13.2.

Still in this data set, the particulars now being: Mus musculus, po; 50 mg/kg orally, 30 min before acetic acid; read-out: % (rate of writhing inhibition).
Take `O=C(O)c1cc(-c2ccc(F)cc2F)ccc1O` [Diflunisal, 5-(2,4-difluorophenyl) salicylic acid, reference compound]: the inhibition at 50 mg/kg was determined as 48%.

The data set is the same for the next values; noted with them: Mus musculus, po; 100 mg/kg orally, 30 min before acetic acid; read-out: % (rate of writhing inhibition).
For the molecule `O=C(O)c1cc(-c2ccc(F)cc2F)ccc1O` [Diflunisal, 5-(2,4-difluorophenyl) salicylic acid, reference compound], the inhibition at 100 mg/kg worked out at 62%.

Another data set deals with rats. In words: Antipyretic activity, E. coli suspension as pyrogen. The settings on record: 100 mg/kg orally; in °C (unit assumed). It counts as in vivo. The procedure:
Rats are administered with sterilized E. coli suspension as a pyrogen. Each group of rats are administered with a prodrug compounds or parent compounds at a dosage specified below. The prodrug compounds are administered either orally or transdermally. The parent compounds are administered orally.
`O=C(O)c1cc(-c2ccc(F)cc2F)ccc1O` [Diflunisal, 5-(2,4-difluorophenyl) salicylic acid, reference compound]: the “body temperature, t = 0 min” value was 37.25 ± 0.06; the “body temperature, t = 90 min” value is listed as 36.81 ± 0.05; the “body temperature, t = 180 min” value turned out to be 36.82 ± 0.08; the “body temperature, t = 270 min” value is given as 36.78 ± 0.07.

Staying with this data set, now noted: 150 mg/kg orally; in °C (unit assumed).
`O=C(O)c1cc(-c2ccc(F)cc2F)ccc1O` [Diflunisal, 5-(2,4-difluorophenyl) salicylic acid, reference compound]: the “body temperature, t = 0 min” value was found to be 37.35 ± 0.09; the “body temperature, t = 90 min” value worked out at 36.61 ± 0.07; the “body temperature, t = 180 min” value is 36.56 ± 0.06; the “body temperature, t = 270 min” value was determined as 36.57 ± 0.05.

The test system of another data set is human skin tissue.
Assay: not given
The settings on record: human, 20 %, pH 7.4.
As for `O=C(O)Cc1ccccc1Oc1ccc(Cl)cc1Cl` [Fenclofenac, fenclofenac], the “In vitro penetration rate (apparent flux), parent compounds” value (“In vitro penetration rate” below) is given as 10 μg/cm^2/h.

With `Cc1cc(CC(=O)O)n(C)c1C(=O)c1ccc(Cl)cc1` [Zomepirac, zomepirac], the “In vitro penetration rate” value turned out to be 10 μg/cm^2/h.

On to `C=C(C)CNc1ccc(C(C)C(=O)O)cc1` (stereo not shown) [Alminoprofen, alminoprofen], for which the “In vitro penetration rate” value is on record as 30 μg/cm^2/h.

Consider `COc1ccc2c(c1)c(CC(=O)OCC(=O)O)c(C)n2C(=O)c1ccc(Cl)cc1` [Acemetacin, acemetacin], for which the “In vitro penetration rate” value amounted to 10 μg/cm^2/h.

On to `CCc1cccc2c3c([nH]c12)C(CC)(CC(=O)O)OCC3` (stereo not shown) [Etodolac, etodolac], for which the “In vitro penetration rate” value is 10 μg/cm^2/h.

Consider `O=C(O)c1cc(-c2ccc(F)cc2F)ccc1O` [Diflunisal, 5-(2,4-difluorophenyl) salicylic acid, reference compound], for which the “In vitro penetration rate” value is listed as below 1 μg/cm^2/h.

For `Nc1c(CC(=O)O)cccc1C(=O)c1ccccc1` [Amfenac, amfenac], the “In vitro penetration rate” value was 10 μg/cm^2/h.

As to `O=C(O)c1ccccc1Nc1cccc(C(F)(F)F)c1` [Flufenamic acid, flufenamic acid], the “In vitro penetration rate” value came out at 10 μg/cm^2/h.

Consider `O=C(O)C(Cl)c1ccc(C2CCCCC2)c(Cl)c1` (stereo not shown) [Fenclorac, fenclorac], for which the “In vitro penetration rate” value was determined as 40 μg/cm^2/h.

Test system in the next data set: not listed separately
In words: in vivo. To be noted: rat.
Protocol: The acute toxicity of the prodrug compounds and parent compounds are measured by LD50 of rat.
Consider `O=C(O)Cc1ccccc1Oc1ccc(Cl)cc1Cl` [Fenclofenac, fenclofenac], for which the LD50 came to 2280 mg/kg.

In the case of `Cc1cc(CC(=O)O)n(C)c1C(=O)c1ccc(Cl)cc1` [Zomepirac, zomepirac], the LD50 turned out to be 27 mg/kg.

`O=C(O)Cc1cn(-c2ccccc2)nc1-c1ccc(Cl)cc1` [Lonazolac, lonazolac, reference compound] had an LD50 of 1000 mg/kg.

With `C=C(C)CNc1ccc(C(C)C(=O)O)cc1` (stereo not shown) [Alminoprofen, alminoprofen], the LD50 is 2400 mg/kg.

With `COc1ccc2c(c1)c(CC(=O)OCC(=O)O)c(C)n2C(=O)c1ccc(Cl)cc1` [Acemetacin, acemetacin], the LD50 was found to be 24 mg/kg.

Take `CCc1cccc2c3c([nH]c12)C(CC)(CC(=O)O)OCC3` (stereo not shown) [Etodolac, etodolac]: the LD50 came out at 460 mg/kg.

`O=C(O)c1cc(-c2ccc(F)cc2F)ccc1O` [Diflunisal, 5-(2,4-difluorophenyl) salicylic acid, reference compound] gave an LD50 of 500 mg/kg.

Molecule `Nc1c(CC(=O)O)cccc1C(=O)c1ccccc1` [Amfenac, amfenac] showed an LD50 of 310 mg/kg.

In turn, `O=C(O)c1ccccc1Nc1cccc(C(F)(F)F)c1` [Flufenamic acid, flufenamic acid] had an LD50 of 720 mg/kg.

`O=C(O)C(Cl)c1ccc(C2CCCCC2)c(Cl)c1` (stereo not shown) [Fenclorac, fenclorac] showed an LD50 of 430 mg/kg.

Test system in a further data set: not listed separately
Briefly: Solubility in water / aqueous solubility of HPPs and parent drugs. The settings on record: water.
With `O=C(O)Cc1ccccc1Oc1ccc(Cl)cc1Cl` [Fenclofenac, fenclofenac], the solubility turned out to be 100 µg/mL (≈ 337 µM).

Regarding `Cc1cc(CC(=O)O)n(C)c1C(=O)c1ccc(Cl)cc1` [Zomepirac, zomepirac], the solubility was 200 µg/mL (≈ 686 µM).

On to `O=C(O)Cc1cn(-c2ccccc2)nc1-c1ccc(Cl)cc1` [Lonazolac, lonazolac, reference compound], for which the solubility stood at 100 µg/mL (≈ 320 µM).

For the molecule `C=C(C)CNc1ccc(C(C)C(=O)O)cc1` (stereo not shown) [Alminoprofen, alminoprofen], the solubility stood at 100 µg/mL (≈ 456 µM).

As to `COc1ccc2c(c1)c(CC(=O)OCC(=O)O)c(C)n2C(=O)c1ccc(Cl)cc1` [Acemetacin, acemetacin], the solubility was 100 µg/mL (≈ 240 µM).

With `CCc1cccc2c3c([nH]c12)C(CC)(CC(=O)O)OCC3` (stereo not shown) [Etodolac, etodolac], the solubility was 100 µg/mL (≈ 348 µM).

As to `O=C(O)c1cc(-c2ccc(F)cc2F)ccc1O` [Diflunisal, 5-(2,4-difluorophenyl) salicylic acid, reference compound], the solubility was found to be 50 µg/mL (≈ 200 µM).

With `Nc1c(CC(=O)O)cccc1C(=O)c1ccccc1` [Amfenac, amfenac], the solubility is 200 µg/mL (≈ 783 µM).

For the molecule `O=C(O)c1ccccc1Nc1cccc(C(F)(F)F)c1` [Flufenamic acid, flufenamic acid], the solubility was below 100 µg/mL.

`O=C(O)C(Cl)c1ccc(C2CCCCC2)c(Cl)c1` (stereo not shown) [Fenclorac, fenclorac]: the solubility is 200 µg/mL (≈ 696 µM).
